In PubChem BioAssay AID1963437 (Molecular Pharmacology Branch, DTP, NCI, 2024):
Where “and” joins values, the source holds several entries; their conditions need not be identical. Equal values may be shown once.

Tested on: OVCAR-8 complex spheroid, growth inhibition
Test: Anticancer human tumor OVCAR-8 cell line growth inhibition [Asc];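 note: spheroids exposed to agents for 7 days before readout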;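 for viability, T/C: percent viability relative to DMSO vehicle wells taken as 100%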
Conditions: for viability, T/C: stronger effect = lower value
Outline: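 Stromal components (HUVEC and hMSC) are co-assembled with the cancer cells into multicellular spheroids. Drugs are then added singly or paired, at concentrations falling by half-log increments from a clinically achievable maximum, capped at 10 microM without known Cmax.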

[1] = curve of first compound, second compound 0.0316 µM
[2] = curve of first compound, second compound 0.1 µM
[3] = curve of first compound, second compound 0.316 µM
[4] = curve of first compound, second compound 1 µM
[5] = curve of first compound, second compound 3.16 µM
[6] = curve of first compound, second compound 10 µM
[7] = second compound 0.0316 µM, first compound 0.00316 µM
[8] = second compound 0.0316 µM, first compound 0.01 µM
[9] = second compound 0.0316 µM, first compound 0.0316 µM
[10] = second compound 0.0316 µM, first compound 0.1 µM
[11] = second compound 0.1 µM, first compound 0.00316 µM
[12] = second compound 0.1 µM, first compound 0.01 µM
[13] = second compound 0.1 µM, first compound 0.0316 µM
[14] = second compound 0.1 µM, first compound 0.1 µM
[15] = second compound 0.316 µM, first compound 0.00316 µM
[16] = second compound 0.316 µM, first compound 0.01 µM
[17] = second compound 0.316 µM, first compound 0.0316 µM
[18] = second compound 0.316 µM, first compound 0.1 µM
[19] = second compound 1 µM, first compound 0.00316 µM
[20] = second compound 1 µM, first compound 0.01 µM
[21] = second compound 1 µM, first compound 0.0316 µM
[22] = second compound 1 µM, first compound 0.1 µM
[23] = second compound 3.16 µM, first compound 0.00316 µM
[24] = second compound 3.16 µM, first compound 0.01 µM
[25] = second compound 3.16 µM, first compound 0.0316 µM
[26] = second compound 3.16 µM, first compound 0.1 µM
[27] = second compound 10 µM, first compound 0.00316 µM
[28] = second compound 10 µM, first compound 0.01 µM
[29] = second compound 10 µM, first compound 0.0316 µM
[30] = second compound 10 µM, first compound 0.1 µM

In the case of O=C(c1ccc(F)c(F)c1Nc1ccc(I)cc1F)N1CC(O)([C@@H]2CCCCN2)C1 + Cc1c(S(C)(=O)=O)c(-c2cc(F)cc(N3CCN(c4ccc(NS(=O)(=O)c5ccc(NC(CCN6CCC(C(=O)OCCCP(=O)(O)O)CC6)CSc6ccccc6)c(S(=O)(=O)C(F)(F)F)c5)cc4)CC3)c2)c(-c2ccc(Cl)cc2)n1C(C)C, the IC50 [1] is reported as > 1000 nM, the IC50 [2] is reported as > 1000 nM and the IC50 [3] is reported as > 1000 nM. The IC50 [4] was > 1000 nM, the IC50 [5] was > 1000 nM and the IC50 [6] was > 1000 nM. The viability, T/C [7] was 103%, the viability, T/C [8] was 114% and the viability, T/C [9] was 140%. It also gave a viability, T/C [10] of 173%, a viability, T/C (second compound 0.0316 µM, first compound 0.316 µM) of 234% and a viability, T/C (second compound 0.0316 µM, first compound 1 µM) of 135%. For the same molecule, the viability, T/C [11] was 110%, the viability, T/C [12] was 134% and the viability, T/C [13] was 160%. It also gave a viability, T/C [14] of 199%, a viability, T/C (second compound 0.1 µM, first compound 0.316 µM) of 254% and a viability, T/C (second compound 0.1 µM, first compound 1 µM) of 122%. It also gave a viability, T/C [15] of 115%, a viability, T/C [16] of 115% and a viability, T/C [17] of 157%. It also gave a viability, T/C [18] of 204%, a viability, T/C (second compound 0.316 µM, first compound 0.316 µM) of 244% and a viability, T/C (second compound 0.316 µM, first compound 1 µM) of 139%. The viability, T/C [19] was 129%, the viability, T/C [20] was 157% and the viability, T/C [21] was 195%. It also gave a viability, T/C [22] of 228%, a viability, T/C (second compound 1 µM, first compound 0.316 µM) of 258% and a viability, T/C (second compound 1 µM, first compound 1 µM) of 126%. The viability, T/C [23] was 125%, the viability, T/C [24] was 137% and the viability, T/C [25] was 197%. The viability, T/C [26] was 228%, the viability, T/C (second compound 3.16 µM, first compound 0.316 µM) was 253% and the viability, T/C (second compound 3.16 µM, first compound 1 µM) was 99.5%. The viability, T/C [27] was 154%, the viability, T/C [28] was 141% and the viability, T/C [29] was 183%. It also gave a viability, T/C [30] of 224%, a viability, T/C (second compound 10 µM, first compound 0.316 µM) of 234% and a viability, T/C (second compound 10 µM, first compound 1 µM) of 107%.
In the case of Cc1nc(N2CCC3(CC2)COC(C)C3N)c(CO)nc1Sc1ccnc(N)c1Cl (stereo not drawn) + CCN1C(C(=O)NC23CCC(C(=O)O)(CC2)CC3)C(c2cccc(Cl)c2F)C2(C(=O)Nc3cc(Cl)ccc32)C12CCCCC2, the IC50 (curve of first compound, second compound 0.00949 µM) is reported as > 3000 nM, the IC50 (curve of first compound, second compound 0.03 µM) is reported as > 3000 nM and the IC50 (curve of first compound, second compound 0.0949 µM) is reported as > 3000 nM. The IC50 (curve of first compound, second compound 0.3 µM) was > 3000 nM, the IC50 (curve of first compound, second compound 0.949 µM) was > 3000 nM and the IC50 (curve of first compound, second compound 3 µM) was > 3000 nM. For the same molecule, the viability, T/C (second compound 0.00949 µM, first compound 0.00949 µM) was 101%, the viability, T/C (second compound 0.00949 µM, first compound 0.03 µM) was 122% and the viability, T/C (second compound 0.00949 µM, first compound 0.0949 µM) was 152%. The viability, T/C (second compound 0.00949 µM, first compound 0.3 µM) was 216%, the viability, T/C (second compound 0.00949 µM, first compound 0.949 µM) was 263% and the viability, T/C (second compound 0.00949 µM, first compound 3 µM) was 209%. The viability, T/C (second compound 0.03 µM, first compound 0.00949 µM) was 108%, the viability, T/C (second compound 0.03 µM, first compound 0.03 µM) was 139% and the viability, T/C (second compound 0.03 µM, first compound 0.0949 µM) was 142%. For the same molecule, the viability, T/C (second compound 0.03 µM, first compound 0.3 µM) was 204%, the viability, T/C (second compound 0.03 µM, first compound 0.949 µM) was 241% and the viability, T/C (second compound 0.03 µM, first compound 3 µM) was 221%. It also gave a viability, T/C (second compound 0.0949 µM, first compound 0.00949 µM) of 103%, a viability, T/C (second compound 0.0949 µM, first compound 0.03 µM) of 117% and a viability, T/C (second compound 0.0949 µM, first compound 0.0949 µM) of 154%. The viability, T/C (second compound 0.0949 µM, first compound 0.3 µM) was 200%, the viability, T/C (second compound 0.0949 µM, first compound 0.949 µM) was 244% and the viability, T/C (second compound 0.0949 µM, first compound 3 µM) was 228%. It also gave a viability, T/C (second compound 0.3 µM, first compound 0.00949 µM) of 115%, a viability, T/C (second compound 0.3 µM, first compound 0.03 µM) of 126% and a viability, T/C (second compound 0.3 µM, first compound 0.0949 µM) of 153%. It also gave a viability, T/C (second compound 0.3 µM, first compound 0.3 µM) of 221%, a viability, T/C (second compound 0.3 µM, first compound 0.949 µM) of 251% and a viability, T/C (second compound 0.3 µM, first compound 3 µM) of 232%. The viability, T/C (second compound 0.949 µM, first compound 0.00949 µM) was 106%, the viability, T/C (second compound 0.949 µM, first compound 0.03 µM) was 101% and the viability, T/C (second compound 0.949 µM, first compound 0.0949 µM) was 175%. For the same molecule, the viability, T/C (second compound 0.949 µM, first compound 0.3 µM) was 229%, the viability, T/C (second compound 0.949 µM, first compound 0.949 µM) was 223% and the viability, T/C (second compound 0.949 µM, first compound 3 µM) was 214%. The viability, T/C (second compound 3 µM, first compound 0.00949 µM) was 125%, the viability, T/C (second compound 3 µM, first compound 0.03 µM) was 140% and the viability, T/C (second compound 3 µM, first compound 0.0949 µM) was 171%. It also gave a viability, T/C (second compound 3 µM, first compound 0.3 µM) of 214%, a viability, T/C (second compound 3 µM, first compound 0.949 µM) of 192% and a viability, T/C (second compound 3 µM, first compound 3 µM) of 169%.
In the case of C=C(F)C(=O)N1CCN(c2nc(OCC3CCCN3C)nc3c2CCN(c2cccc4cccc(Cl)c24)C3)CC1CC#N (stereo not drawn), the viability, T/C (compound 0.0316 µM) is reported as 107% (2×) and 96.3%, the viability, T/C (compound 0.1 µM) is reported as 113% and 98.5% and 93.6% and the viability, T/C (compound 0.316 µM) is reported as 109% and 84.2% and 106%. The viability, T/C (compound 1 µM) was 101% and 105% and 104%, the viability, T/C (compound 3.16 µM) was 25.7% and 39.4% and 37.9% and the viability, T/C (compound 10 µM) was 0.33% and 0.7% and 1.79%. The IC50 (curve of compound) was 2190 nM and 2550 nM and 2560 nM.
With NC1CCC(NC2CC2c2ccccc2)CC1 (stereo not drawn) + Cc1c(S(C)(=O)=O)c(-c2cc(F)cc(N3CCN(c4ccc(NS(=O)(=O)c5ccc(NC(CCN6CCC(C(=O)OCCCP(=O)(O)O)CC6)CSc6ccccc6)c(S(=O)(=O)C(F)(F)F)c5)cc4)CC3)c2)c(-c2ccc(Cl)cc2)n1C(C)C the IC50 [1] was > 100 nM, the IC50 [2] was > 100 nM and the IC50 [3] was > 100 nM. For the same molecule, the IC50 [4] was > 100 nM, the IC50 [5] was > 100 nM and the IC50 [6] was > 100 nM. It also gave a viability, T/C (second compound 0.0316 µM, first compound 0.000316 µM) of 111%, a viability, T/C (second compound 0.0316 µM, first compound 0.001 µM) of 109% and a viability, T/C [7] of 83.2%. The viability, T/C [8] was 101%, the viability, T/C [9] was 109% and the viability, T/C [10] was 80.5%. The viability, T/C (second compound 0.1 µM, first compound 0.000316 µM) was 97.5%, the viability, T/C (second compound 0.1 µM, first compound 0.001 µM) was 102% and the viability, T/C [11] was 93.4%. For the same molecule, the viability, T/C [12] was 105%, the viability, T/C [13] was 120% and the viability, T/C [14] was 91.8%. The viability, T/C (second compound 0.316 µM, first compound 0.000316 µM) was 99.2%, the viability, T/C (second compound 0.316 µM, first compound 0.001 µM) was 97.3% and the viability, T/C [15] was 111%. For the same molecule, the viability, T/C [16] was 100%, the viability, T/C [17] was 108% and the viability, T/C [18] was 106%. It also gave a viability, T/C (second compound 1 µM, first compound 0.000316 µM) of 118%, a viability, T/C (second compound 1 µM, first compound 0.001 µM) of 114% and a viability, T/C [19] of 103%. For the same molecule, the viability, T/C [20] was 107%, the viability, T/C [21] was 132% and the viability, T/C [22] was 106%. It also gave a viability, T/C (second compound 3.16 µM, first compound 0.000316 µM) of 99.3%, a viability, T/C (second compound 3.16 µM, first compound 0.001 µM) of 101% and a viability, T/C [23] of 119%. It also gave a viability, T/C [24] of 118%, a viability, T/C [25] of 123% and a viability, T/C [26] of 104%. For the same molecule, the viability, T/C (second compound 10 µM, first compound 0.000316 µM) was 105%, the viability, T/C (second compound 10 µM, first compound 0.001 µM) was 99.6% and the viability, T/C [27] was 113%. It also gave a viability, T/C [28] of 137%, a viability, T/C [29] of 133% and a viability, T/C [30] of 118%.
